pEC50: −log10 of the molar value.
System: HIV (HTLV-III B strain)
Assay: HIV replication inhibition assay (MTT, MT-4 cells)
Assay type: cell-based
Summary of the method: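 MT-4 cells (2.5×10^4/well) infected with HTLV-III B stock (60 pfu) in presence of compound, cultured four days at 37 °C. Viability by MTT reduction, formazan read at 560 and 690 nm. EC50 is concentration inhibiting virus-induced cytotoxicity by 50%.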

[1] = Human immunodeficiency virus 1, MT4, 96 h, Table A-7, four days
[2] = Human immunodeficiency virus 1, MT4, 96 h, Table A-8 (continuation of Tables A-1 to A-9), four days
[3] = Human immunodeficiency virus 1, MT4, 96 h, Table A-9, four days

Structure (SMILES)	pEC50 [1]	pEC50 [2]	also measured
Cc1c(-c2ccc(Cl)cc2O)c([C@H](OC(C)(C)C)C(=O)O)c(C)c2c1-c1c(F)cccc1CN2S(C)(=O)=O [Compound 324]	8.09	–	–
Cc1c(-c2ccc(Cl)cc2)c([C@H](OC(C)(C)C)C(=O)O)c(C)c2c1-c1ncc(F)cc1CN2S(C)(=O)=O [Compound 325]	–	–	pEC50 (Table A-7, four days): 7.96
Cc1c(-c2ccccc2)c([C@H](OC(C)(C)C)C(=O)O)c(C)c2c1-c1ncc(F)cc1CN2S(C)(=O)=O [Compound 326]	–	–	pEC50 (Table A-7, four days): 7.27
Cc1c(-c2c(C)c3c(c(C)c2[C@H](OC(C)(C)C)C(=O)O)N(S(C)(=O)=O)Cc2cccc(F)c2-3)ccc(Cl)c1N [Compound 327]	8.14	–	–
COc1ccc(-c2c(C)c3c(c(C)c2[C@H](OC(C)(C)C)C(=O)O)N(S(C)(=O)=O)Cc2c(F)ccc(F)c2-3)c(C)n1 [Compound 329]	7.41	–	–
Cc1ccc(-c2c(C)c3c(c(C)c2[C@H](OC(C)(C)C)C(=O)O)N(S(C)(=O)=O)Cc2cc(N)ncc2-3)c(C)c1 [Compound 330]	7.28	–	–
Cc1c(-c2ccc(F)cc2O)c([C@H](OC(C)(C)C)C(=O)O)c(C)c2c1-c1c(F)ccc(F)c1CN2S(C)(=O)=O [Compound 332]	7.62	–	–
Cc1ccc(-c2c(C)c3c(c(C)c2[C@H](OC(C)(C)C)C(=O)O)N(S(N)(=O)=O)Cc2c(F)ccc(F)c2-3)cc1 [Compound 333]	7.72	–	–
Cc1ccc(-c2c(C)c3c(c(C)c2[C@H](OC(C)(C)C)C(=O)O)N(S(C)(=O)=O)Cc2cccc(F)c2-3)s1 [Compound 334]	7.66	–	–
Cc1ccc(-c2c(C)c3c(c(C)c2[C@H](OC(C)(C)C)C(=O)O)N(C(N)=O)Cc2c(F)ccc(F)c2-3)cc1 [Compound 335]	7.52	–	–
Cc1c(-c2ccc3c(c2)OCCO3)c([C@H](OC(C)(C)C)C(=O)O)c(C)c2c1-c1c(F)cccc1CN2S(C)(=O)=O [Compound 336]	7.66	–	–
Cc1c(-c2c(C)c3c(c(C)c2[C@H](OC(C)(C)C)C(=O)O)N(S(C)(=O)=O)[C@@H](C)c2cccnc2-3)ccc2c1NCCO2 [Compound 337]	7.59	–	–
Cc1c(-c2ccc3c(c2)NCCC3)c([C@H](OC(C)(C)C)C(=O)O)c(C)c2c1-c1c(F)cccc1CN2S(C)(=O)=O [Compound 340]	8.37	–	–
CC(=O)N1Cc2cccc(F)c2-c2c(C)c(-c3ccc4c(c3C)NCCO4)c([C@H](OC(C)(C)C)C(=O)O)c(C)c21 [Compound 342]	8.05	–	–
Cc1cc(C)c(-c2c(C)c3c(c(C)c2[C@H](OC(C)(C)C)C(=O)O)N(S(C)(=O)=O)Cc2cccc(F)c2-3)s1 [Compound 343]	7.80	–	–
Cc1c(-c2c(C)c3c(c(C)c2[C@H](OC(C)(C)C)C(=O)O)N(C)Cc2cc(F)cc(F)c2-3)ccc2c1NCCO2 [Compound 344]	7.33	–	–
Cc1ccc2c(c1)-c1c(C)c(-c3ccc4c(c3C)NCCO4)c([C@H](OC(C)(C)C)C(=O)O)c(C)c1N(S(C)(=O)=O)C2 [Compound 345]	8.17	–	–
Cc1cccc2c1CN(S(C)(=O)=O)c1c(C)c([C@H](OC(C)(C)C)C(=O)O)c(-c3ccc4c(c3C)NCCO4)c(C)c1-2 [Compound 346]	8.32	–	–
Cc1cccc2c1-c1c(C)c(-c3ccc4c(c3C)NCCO4)c([C@H](OC(C)(C)C)C(=O)O)c(C)c1N(S(C)(=O)=O)C2 [Compound 347]	7.66	–	–

Structure (SMILES)	pEC50 [1]	pEC50 [2]	also measured
Cc1ccc2c(c1)CN(S(C)(=O)=O)c1c(C)c([C@H](OC(C)(C)C)C(=O)O)c(-c3ccc4c(c3C)NCCO4)c(C)c1-2 [Compound 348]	8.70	–	–
Cc1c(-c2c(C)c3c(c(C)c2[C@H](OC(C)(C)C)C(=O)O)N(S(C)(=O)=O)Cc2cccc(F)c2-3)ccc2c1NC(=O)CO2 [Compound 350]	7.02	–	–
CCC(C)(C)O[C@H](C(=O)O)c1c(C)c2c(c(C)c1-c1ccc3c(c1C)NCCO3)-c1c(F)cccc1CN2S(C)(=O)=O [Compound 351]	8.35	–	–
Cc1ccc(-c2c(C)c3c(c(C)c2[C@H](OC(C)(C)C)C(=O)O)N(S(C)(=O)=O)Cc2cccc(F)c2-3)cc1N [Compound 352]	8.00	–	–
Cc1c(-c2c(C)c3c(c(C)c2[C@H](OC(C)(C)C)C(=O)O)N(C(N)=O)Cc2c(F)ccc(F)c2-3)ccc2c1NCCO2 [Compound 358]	7.04	–	–
Cc1c(-c2c(C)c3c(c(C)c2[C@H](OC(C)(C)C)C(=O)O)N(S(C)(=O)=O)Cc2cccc(F)c2-3)ccc2c1NCCC2 [Compound 359]	8.27	–	–
Cc1c(-c2c(C)c3c(c(C)c2[C@H](OC(C)(C)C)C(=O)O)N(S(C)(=O)=O)Cc2cccc(F)c2-3)ccc2c1OCCO2 [Compound 360]	8.36	–	–
Cc1c(-c2ccc3c(c2)NCC3)c([C@H](OC(C)(C)C)C(=O)O)c(C)c2c1-c1c(F)cccc1CN2S(C)(=O)=O [Compound 363]	–	7.85	–
Cc1c(-c2ccc(Cl)c3[nH]ccc23)c([C@H](OC(C)(C)C)C(=O)O)c(C)c2c1-c1c(F)cccc1CN2S(C)(=O)=O [Compound 364]	–	7.80	–
Cc1c(-c2c(C)c3c(c(C)c2[C@H](OC(C)(C)C)C(=O)O)N(S(C)(=O)=O)Cc2cccc(F)c2-3)ccc(Br)c1N [Compound 367]	–	8.12	–
COc1cnc2c(c1)CN(S(C)(=O)=O)c1c(C)c([C@H](OC(C)(C)C)C(=O)O)c(-c3ccc(C)cc3)c(C)c1-2 [Compound 368]	–	8.41	–
Cc1c(-c2ccc(Cl)cc2)c([C@H](OC(C)(C)C)C(=O)O)c(C)c2c1-c1ncccc1CN2S(C)(=O)=O [Compound 369]	–	7.36	–
COc1ccc2c(n1)CN(S(C)(=O)=O)c1c(C)c([C@H](OC(C)(C)C)C(=O)O)c(-c3ccc(C)cc3)c(C)c1-2 [Compound 371]	–	8.34	–
Cc1c(-c2c(C)c3c(c(C)c2[C@H](OC(C)(C)C)C(=O)O)N(S(C)(=O)=O)Cc2cccc(F)c2-3)ccc(Cl)c1O [Compound 372]	–	7.09	–
COc1ccnc2c1CN(S(C)(=O)=O)c1c(C)c([C@H](OC(C)(C)C)C(=O)O)c(-c3ccc(C)cc3)c(C)c1-2 [Compound 374]	–	7.20	–
Cc1ccc(-c2c(C)c3c(c(C)c2[C@H](OC2(C)CCC2)C(=O)O)N(S(C)(=O)=O)Cc2cccc(F)c2-3)cc1 [Compound 375]	–	7.72	–
Cc1c(-c2ccc(Cl)cc2)c([C@H](OC2(C)CCC2)C(=O)O)c(C)c2c1-c1c(F)cccc1CN2S(C)(=O)=O [Compound 378]	–	7.44	–
COc1cc2c(cn1)-c1c(C)c(-c3ccc(Cl)cc3)c([C@H](OC(C)(C)C)C(=O)O)c(C)c1N(S(C)(=O)=O)C2 [Compound 379]	–	8.64	–
Cc1ccc2c(n1)CN(S(C)(=O)=O)c1c(C)c([C@H](OC(C)(C)C)C(=O)O)c(-c3ccc(Cl)cc3)c(C)c1-2 [Compound 380]	–	7.89	–

Structure (SMILES)	pEC50 [1]	pEC50 [2]	also measured
Cc1ccc(-c2c(C)c3c(c(C)c2[C@H](OC(C)(C)C)C(=O)O)N(S(C)(=O)=O)Cc2cccc(F)c2-3)c(O)c1 [Compound 381]	–	8.30	–
Cc1ccc(-c2c(C)c3c(c(C)c2[C@H](OC(C)(C)C)C(=O)O)N(S(C)(=O)=O)Cc2cc(C)cnc2-3)c(O)c1 [Compound 382]	–	7.31	–
Cc1ccc(-c2c(C)c3c(c(C)c2[C@H](OC(C)(C)C)C(=O)O)N(S(C)(=O)=O)Cc2cc(C)cnc2-3)c(C)c1 [Compound 384]	–	8.08	–
Cc1ccc(-c2c(C)c3c(c(C)c2[C@H](OC(C)(C)C)C(=O)O)N(S(C)(=O)=O)Cc2cnc(C(F)(F)F)cc2-3)cc1 [Compound 385]	–	7.41	–
Cc1ccc(-c2c(C)c3c(c(C)c2[C@H](OC(C)(C)C)C(=O)O)N(S(C)(=O)=O)Cc2ccc(N)nc2-3)cc1 [Compound 386]	–	7.07	–
Cc1ccc(-c2c(C)c3c(c(C)c2[C@H](OC(C)(C)C)C(=O)O)N(S(C)(=O)=O)Cc2nc(C)cc(C)c2-3)cc1 [Compound 388]	–	7.54	–
COc1nc2c(cc1F)CN(S(C)(=O)=O)c1c(C)c([C@H](OC(C)(C)C)C(=O)O)c(-c3ccc(C)cc3)c(C)c1-2 [Compound 389]	–	7.17	–
Cc1ccc(-c2c(C)c3c(c(C)c2[C@H](OC(C)(C)C)C(=O)O)N(S(C)(=O)=O)Cc2cc(N(C)C)cnc2-3)cc1 [Compound 390]	–	8.66	–
Cc1ccc(-c2c(C)c3c(c(C)c2[C@H](OC(C)(C)C)C(=O)O)N(S(C)(=O)=O)Cc2cc(C(F)(F)F)cnc2-3)cc1 [Compound 391]	–	8.39	–
Cc1ccc(-c2c(C)c3c(c(C)c2[C@H](OC(C)(C)C)C(=O)O)N(S(C)(=O)=O)Cc2c(C)ccnc2-3)cc1 [Compound 392]	–	7.51	–
COc1cc2c(cn1)-c1c(C)c(-c3ccc(C)cc3C)c([C@H](OC(C)(C)C)C(=O)O)c(C)c1N(S(C)(=O)=O)C2 [Compound 393]	–	8.33	–
Cc1ccc(-c2c(C)c3c(c(C)c2[C@H](OC(C)(C)C)C(=O)O)N(S(C)(=O)=O)Cc2cccc(F)c2-3)c(CO)c1 [Compound 394]	–	7.57	–
Cc1ccc(-c2c(C)c3c(c(C)c2[C@H](OC(C)(C)C)C(=O)O)N(S(C)(=O)=O)Cc2ccc4c(c2-3)OCCO4)cc1 [Compound 395]	–	7.47	–
Cc1ccc(-c2c(C)c3c(c(C)c2[C@H](OC(C)(C)C)C(=O)O)N(S(C)(=O)=O)Cc2ccc(C(F)(F)F)nc2-3)cc1 [Compound 397]	–	7.48	–
Cc1ccc(-c2c(C)c3c(c(C)c2[C@H](OC(C)(C)C)C(=O)O)N(S(C)(=O)=O)Cc2cc(F)c(N(C)C)nc2-3)cc1 [Compound 398]	–	7.10	–
Cc1ccc(-c2c(C)c3c(c(C)c2[C@H](OC(C)(C)C)C(=O)O)N(S(C)(=O)=O)Cc2c(F)ncc(F)c2-3)cc1 [Compound 403]	–	–	pEC50 [3]: 7.84
Cc1cnc2c(c1)CN(S(C)(=O)=O)c1c(C)c([C@H](OC(C)(C)C)C(=O)O)c(C3=CCC(C)(C)CC3)c(C)c1-2 [Compound 404]	–	–	pEC50 [3]: > 8.11
Cc1cnc2c(c1)CN(S(C)(=O)=O)c1c(C)c([C@H](OC(C)(C)C)C(=O)O)c(-c3ccc(Cl)cc3O)c(C)c1-2 [Compound 406]	–	–	pEC50 [3]: 7.42
Cc1ccc(-c2c(C)c3c(c(C)c2[C@H](OC(C)(C)C)C(=O)O)N(S(C)(=O)=O)Cc2cc(Cl)cnc2-3)cc1 [Compound 407]	–	–	pEC50 [3]: > 8.11

From patent publication US20180362543A1, “HIV REPLICATION INHIBITOR” (Shionogi & Co., Ltd., priority 2013, published 2018)
